Patent US20250060373A1, “NOVEL ASSAY AND NOVEL METHODS OF TREATING HUTCHINSON-GILFORD PROGERIA SYNDROME” (The Progeria Research Foundation, priority 2021, published 2025)

How the values were obtained:
[1] = tested on: children with HGPS; details: children with HGPS treated with lonafarnib in clinical trials; cited from earlier work
[2] = tested on: plasma progerin; test: Plasma progerin (SMC Progerin Immunoassay) in HGPS clinical trial patients on therapy; type: in vivo, human
Description: An SMC ultrasensitive immunoassay for the detection of plasma progerin was developed. Overall, the assay employed a sandwich immunoassay format with an anti-lamin A capture antibody coated on magnetic microparticles, and an anti-progerin specific detection antibody conjugated to a fluorescent tag (FIG. 1) run in a 96-well plate. Progerin-bound detection antibody was eluted and read as single molecules using a confocal laser.
The SMC assay for measuring Progerin was as previously described (Todd et al.), except that magnetic microparticles (MP) coated with capture antibodies and detection reagents were specific to the progerin assay (FIG. 1). […] Progerin-bound detection antibody was then eluted by pH shift using a proprietary glycine buffer, transferred to a new plate and detected by SMC using the Erenna Immunoassay System software (SgxLink™). The raw signal data and the interpolated value data obtained from SgxLink were transferred to Excel where precision was then calculated for the replicate wells. […]
For analysis, samples were fully thawed at RT for <5 min, lightly mixed, diluted in standard diluent before transferring into filter plate wells (MilliporeSigma MSBVN1210). […] Filtrate was then assessed as described. […]

Compound: NC(=O)N1CCC(CC(=O)N2CCC([C@H]3c4ncc(Br)cc4CCc4cc(Cl)cc(Br)c43)CC2)CC1 [lonafarnib]
- increased survival, estimated, on average [1]: 2.5 years
- average progerin, lonafarnib monotherapy extension visits versus consecutive Triple Therapy visits ([2]; 10 patients, extension of additional 4.1±0.5 years, p=0.99): no significant differences
- progerin at 150 mg/m^2 versus the 115 mg/m^2 dose ([2]; ProLon1, each of the 4 trial visits after the 8-month visit, N=22-25, all p<0.05): significantly decreased
